Measured values from patent publication US20250057959A1, “PHOSPHANE GOLD(I)-N-HETEROCYCLIC CARBENE COMPLEXES FOR TREATING CANCER” (KING FAHD UNIVERSITY OF PETROLEUM AND MINERALS, priority 2023, published 2025).

How the values were obtained:
[1] = test system: SKOV3 cells; experiment: In vitro wound healing assay (cell migration); type: cell-based, human
Procedure: (§1) Cell migration was assessed using the in vitro wound healing assay. Briefly, cells were grown to confluence and then treated with complex 6. After 24 hours of treatment, the medium was removed and cells were washed then scraped with a pipet tip to create a “wound” in the monolayer and washed again. Fresh medium containing 2% FCS was added. Wounds were photographed at times 0, 24, and 48 hours using an inverted microscope (EclipseTS/100, Nikon, Instruments Europe BV Amsterdam, The Netherlands) at magnification 4. Migration was assessed by measuring the cell-free area (in pixels) with ImageJ-NIH (National Institutes of Health) tool software. The cytoskeleton organization was evaluated by culturing SKOV3 cells onto glass coverslips and performing immunofluorescence staining for α-tubulin and F-actin. SKOV3 cells were treated for 24 hours with complex 6, fixed in 4% paraformaldehyde, permeabilized with 0.5% Triton X-100, and incubated overnight with primary antibody (Table 1) at 4° C. Primary antibody was detected using the appropriate secondary antibody together with phallotoxins (Molecular Probes) and TO-PRO-3 (Thermo Fisher Scientific). Images were acquired using an SP8 confocal microscope (Leica).

[2] = biological target: T1, 20S proteasome (Homo sapiens, UniProt P28074); experiment: 20S proteasome activity in lysates of treated cells; type: cell-based; conditions: OvCa cells treated 24 hours
T1 construct: endogenous in cells; host or cells: A2780, A2780cis and SKOV3 ovarian cancer cells, treated for 24 h and then lysed
Procedure: Proteasome activity (EC 3.4.25.1) was evaluated on the same cell lysates as TrxR using the 20S proteasome activity assay kit APT280 (Merck Millipore) and a computer-interfaced GeniusPlus microplate reader (Tecan Trading AG, Switzerland). The activity was normalized to the protein concentration and expressed as a percentage of control.

[3] = test system: SKOV3 cells; experiment: Cytoskeleton organization, immunofluorescence confocal microscopy; type: cell-based, human; conditions: 24 hours treatment
Procedure: as §1

[4] = test system: SKOV3-MCTSs; experiment: Apoptosis, mitROS and DNA-DSBs in SKOV3-MCTSs; type: cell-based, human
Procedure: To obtain multiple spheroids, 5.0×10^4/mL SKOV3 cells were seeded in nonadherent conditions on poly-HEMA coated wells for 4 days. After drug treatment, viable cells were evaluated using PrestoBlue cell viability reagent (Thermo Fisher Scientific, Frederick, MD, USA) or alternatively trypsinized to a single cell suspension for further analysis.
(§2) 2.0×10^5/mL A2780 and A2780cis cells were seeded in 6-well plates in complete medium and treated with complex 6 (0.15 μM and 0.5 μM). Results were detected by flow cytometry on a BD FACSCanto II flow cytometer. Data were analyzed using BD FACSDiva version 8.0.1 software (BD Biosciences) unless otherwise indicated. To evaluate apoptosis, tumor cells were treated for 48 hours and then stained for 15 minutes with FITC annexin-V (Thermo Fisher Scientific) and 7AAD (BD Pharmingen). […] For B-cell lymphoma/leukemia-2 (Bcl-2) and Bcl-2 associated x protein (Bax) evaluation, cells were fixed and permeabilized using FIX & PERM cell fixation and cell permeabilization kit (Life Technologies). For ROS generation, cells were stained with 5 μM MitoSOX red mitochondrial superoxide indicator (ThermoFisher Scientific) in a working solution for 30 minutes at 37° C. Cell cycle analysis was performed after 24 hours treatment with complex 6. Cells were harvested, fixed in cold 70% ethanol for 15 minutes, and stained with propidium iodide (PI) solution ([…] PI, 0.1% NP-40, 100 µg/mL PureLink RNase A, 0.1% sodium citrate) for 1 hour. The distribution of cells in different cell cycle phases was quantified using ModFit LT 4.0 software (Verity Software House, Topsham, ME, USA).
Whole-cell lysates were prepared using cold RIPA buffer [150 mM NaCl, 50 mM Tris-HCl (pH 8), 0.1% SDS, 1% Igepal, and 0.5% desoxycholate sodium] containing a protease inhibitor cocktail (Roche Diagnostics S.p.a., Milan, Italy), phosphatase inhibitors 1 mM Na3VO4 and 1 mM NaF (Sigma-Aldrich). Protein concentrations were determined using the BioRad protein assay (Bio-Rad Laboratories, Inc., CA, USA). Equal amounts of proteins were mixed with Laemmli buffer, separated in 4-20% SDS-PAGE (Criterion Precast Gel, BioRad), and blotted onto a nitrocellulose membrane (Amersham, GE Healthcare). Membrane strips were blocked with EveryBilot blocking buffer (Bio-Rad) and incubated at 4° C. overnight with primary antibodies probed with the appropriate antibodies (Table 2) and developed using Immobilon Western chemioluminescent HRP substrate. Images were acquired using a ChemiDoc XRS system (Bio-Rad).

[5] = test system: A2780, A2780cis, and SKOV3 cells; experiment: Cell cycle analysis (PI, flow cytometry), three OvCa lines; type: cell-based, human; conditions: 24 hours, 0.15 μM and 0.5 μM
Procedure: as §2

[6] = test system: SKOV3 cells; experiment: MTT cell viability assay, SKOV3; type: cell-based, human; conditions: 72 hours treatment
Excerpt: Human epithelial ovarian cancer A2780 cell line and its cisplatin-resistant clone A2780cis were obtained from Sigma-Aldrich (Milano, Italy). SKOV3 (HTB-77) cells were from the American Type Culture Collection (ATCC). The two cell lines were selected to reflect the two different stages of OvCa and different sensitivity to cisplatin. A2780 cell lines were derived from the ovarian tumor tissue of an untreated patient, while SKOV3 was from the ascitic fluids (after metastasis). Cells were authenticated in the laboratory using PowerPlex 16 HS system (Promega) and GeneMapper ID version 3.2.1 to identify DNA short tandem repeats. Cell lines were cultured in RPMI-1640 medium containing 10% fetal bovine serum (FBS) (Gibco, Thermo Fisher Scientific, U.S.A), 1% (v/v) of penicillin (10,000 units/mL)-streptomycin (10 mg/mL), and 1% (v/v) L-glutamine (200 mM) (all from Sigma- Aldrich) at 37° C. in a 5% CO2 fully humidified atmosphere. A2780cis cells were continuously exposed to 1 μM cisplatin to maintain cisplatin resistance. Adipose-derived stem cells (ADSCs) were purchased from Lonza and maintained in mesenchymal-stem-cell growth medium Bulletkit MSCGM (Lonza, Verviers, Belgium).
4.0×10^3/mL A2780, A2780cis, and SKOV3 cells were seeded in 96-well microplates in 100 μL of culture medium. Cells were allowed to adhere for 24 hours and then were treated in triplicate with increasing concentrations of gold compounds (0-1 μM). Cisplatin was included as a reference drug. Cell viability was evaluated using 3-(4,5-dimethylthiazol-2-yl)-2,5-diphenyltetrazolium bromide (MTT) assay (Sigma-Aldrich) after 72 hours of treatment. Half maximal inhibitory concentrations (IC50) were calculated using the CalcuSyn software version 2 (Biosoft, Ferguson, MO, USA). Fold resistance was calculated as the ratio of the IC50 of the A2780cis to that of the parental cell line A2780.

For `CC(C)c1cccc(C(C)C)c1-n1ccn(-c2c(C(C)C)cccc2C(C)C)[c]1=[Au+][PH](C1CCCCC1)(C1CCCCC1)C1CCCCC1.F[P-](F)(F)(F)(F)F` [Complex 6, [Au(IPr)(C18H33P)] PF6], the SKOV3 migration ([1]; 24 hours treatment) was “decreased the SKOV3 migration”, the “Remaining uncovered area (wound)” value ([1]; 48 hours after scratch, highest concentration, control about 5%) was ~70% and the 20S proteasome activity [2] was “decreased the 20S proteasome activity in a dose-dependent manner”. For the same compound, the F-actin cytoskeleton organization [3] was “irregular disposition and organization of the F-actin cytoskeleton”, the α-tubulin distribution [3] was “did not modify α-tubulin distribution” and the “mitROS generation in SKOV3-MCTSs” value ([4]; 24 hours) was “increased mitROS generation”. For the same compound, the “Caspase-3,7 activation in SKOV3-MCTSs” value ([4]; FLICA) was “caused the activation of caspase-3,7”, the “Annexin-V+ cells in SKOV3-MCTSs” value ([4]; annexin-V-FITC/7AAD, flow cytometry) was “caused an increase of annexin-V+ cells” and the “DNA-DSBs (γH2AX) in SKOV3-MCTSs” value ([4]; western blot) was “induced DNA-DSBs”. For the same compound, the “Effect on cell cycle phases” value [5] was “induced an accumulation in the G0/G1 phase of the cell cycle and a decrease in the S phases” and the IC50 [6] was 580 nM.
